According to US9499535B2, “Kinase inhibitors” (ORIGENIS GMBH, priority 2011, dated 2016):
Like-named read-outs stand apart in the source and are kept apart here.

Legend:
SYK kinase = biological target: T1, SYK kinase (Homo sapiens, UniProt P43405); assay: SYK assay (OMNIA Kinase Assay, Invitrogen); assay type: biochemical; conditions: apparent Ki calculated from the IC50 using the Cheng-Prusoff equation; 1 mM ATP, 10 μM Peptide Substrate; read-out: SYK Activities: Ki
T1 construct: purchased Invitrogen, Carlsbad
Summary of the method: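 Reaction velocities were measured from kinetic fluorescence reads (360/485 nm, every 30 s over 30 min) of Mg2+-chelated SOX signal. Conditions were 1 mM ATP, 10 μM Omnia Tyr 7 peptide and 0.2 mM DTT at 30° C. Sigmoidal IC50 fits were converted to apparent Ki using Cheng-Prusoff.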

MYLK = MYLK (Homo sapiens, UniProt Q15746); assay: MYLK assay (LanthaScreen Eu Kinase Binding Assay)
Chain of MYLK (Q15746 whole entry): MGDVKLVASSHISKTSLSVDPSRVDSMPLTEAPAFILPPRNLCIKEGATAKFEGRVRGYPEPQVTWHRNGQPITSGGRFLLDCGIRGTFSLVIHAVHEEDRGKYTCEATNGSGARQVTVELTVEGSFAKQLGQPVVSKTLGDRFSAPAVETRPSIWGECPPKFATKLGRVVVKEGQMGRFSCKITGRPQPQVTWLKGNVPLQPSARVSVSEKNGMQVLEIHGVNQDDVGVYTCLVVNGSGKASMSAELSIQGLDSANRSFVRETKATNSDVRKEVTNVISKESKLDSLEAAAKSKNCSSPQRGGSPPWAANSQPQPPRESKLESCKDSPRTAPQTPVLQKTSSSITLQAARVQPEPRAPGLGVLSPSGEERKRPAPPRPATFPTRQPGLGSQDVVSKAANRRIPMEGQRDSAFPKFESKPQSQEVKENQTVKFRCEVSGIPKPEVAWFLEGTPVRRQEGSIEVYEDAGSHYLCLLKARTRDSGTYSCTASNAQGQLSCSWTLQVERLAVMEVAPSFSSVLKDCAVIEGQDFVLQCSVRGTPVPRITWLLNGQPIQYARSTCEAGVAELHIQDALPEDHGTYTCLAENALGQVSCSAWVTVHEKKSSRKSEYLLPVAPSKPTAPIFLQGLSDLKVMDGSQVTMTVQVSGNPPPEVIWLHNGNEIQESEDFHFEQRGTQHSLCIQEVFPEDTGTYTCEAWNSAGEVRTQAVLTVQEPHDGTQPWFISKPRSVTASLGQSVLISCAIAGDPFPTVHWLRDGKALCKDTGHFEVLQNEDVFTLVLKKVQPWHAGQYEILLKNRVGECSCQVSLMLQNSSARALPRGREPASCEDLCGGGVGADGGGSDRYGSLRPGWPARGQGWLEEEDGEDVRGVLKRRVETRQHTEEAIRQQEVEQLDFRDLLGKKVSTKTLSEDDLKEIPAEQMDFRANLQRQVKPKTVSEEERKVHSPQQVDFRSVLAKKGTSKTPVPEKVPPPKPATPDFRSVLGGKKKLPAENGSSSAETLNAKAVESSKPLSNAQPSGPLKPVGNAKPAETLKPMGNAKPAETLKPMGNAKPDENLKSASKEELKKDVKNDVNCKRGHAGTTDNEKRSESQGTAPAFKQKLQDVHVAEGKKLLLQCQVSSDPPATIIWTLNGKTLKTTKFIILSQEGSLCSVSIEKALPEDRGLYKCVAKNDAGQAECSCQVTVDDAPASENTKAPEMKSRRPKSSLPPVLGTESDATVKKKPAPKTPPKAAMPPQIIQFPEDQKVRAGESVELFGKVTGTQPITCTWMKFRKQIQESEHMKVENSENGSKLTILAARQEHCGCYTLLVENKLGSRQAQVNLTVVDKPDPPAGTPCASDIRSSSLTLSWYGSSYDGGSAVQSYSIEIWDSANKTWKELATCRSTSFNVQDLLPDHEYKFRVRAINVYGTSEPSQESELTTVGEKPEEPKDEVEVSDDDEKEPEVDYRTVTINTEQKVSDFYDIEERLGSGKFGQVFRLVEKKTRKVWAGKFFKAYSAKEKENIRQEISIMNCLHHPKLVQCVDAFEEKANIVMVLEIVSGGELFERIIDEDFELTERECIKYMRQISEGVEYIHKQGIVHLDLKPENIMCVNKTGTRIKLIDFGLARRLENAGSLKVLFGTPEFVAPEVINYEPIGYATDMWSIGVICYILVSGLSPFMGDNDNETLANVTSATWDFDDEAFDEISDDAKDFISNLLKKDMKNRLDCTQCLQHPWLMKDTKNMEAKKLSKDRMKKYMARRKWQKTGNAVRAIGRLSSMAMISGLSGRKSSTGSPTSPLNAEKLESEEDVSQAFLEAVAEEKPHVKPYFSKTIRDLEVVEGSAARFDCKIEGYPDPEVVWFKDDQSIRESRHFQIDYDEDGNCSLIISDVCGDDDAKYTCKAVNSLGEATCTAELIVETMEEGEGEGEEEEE
Experimental: In the assay LanthaScreen™ Eu Kinase Binding Assay by Invitrogen Corporation (Carlsbad) the effect of invention of a compound on the phosphorylation is determined by measurement of fluorescence intensity emission ratio based on the binding and displacement of a proprietary, Alexa Fluor® 647-labeled, ATP-competitive kinase inhibitor scaffold (kinase tracer) to the kinase of interest as described above.
To the wells of an 384 well small volume plate (Greiner, Frickenhausen) are added (i) the compound under test in 5% DMSO/distilled water (5 μl), (ii) 5 μl of the kinase antibody mixture resulting in a final concentration 5 nM MYLK, 2 nM EU-Anti-GST antibody in 1× kinase buffer A. The reaction was started with addition of (iii) 5 μl resulting in a final concentration of 30 nM tracer 236. The assay plate was incubated at RT for 1 h and fluorescence intensitiy readings were collected using a TECAN M1000 at two wavelengthes of λex 340/λem 615 nm and λex 340/λem 665 nm with a delay time of 100 μs and an integration time of 200 μs after 60 minutes. The emission ratio was calculated by division of the acceptor/tracer emission ([…]) by the antibody/donor emission ([…]). The inhibitor concentration was plotted versus the emission ratio to determine the IC50 using XLFit 5.0 (IDBS, Guildford) to fit to a sigmoidal dose response curve with a variable slope.

LRRK2 = LRRK2 (Homo sapiens, UniProt Q5S007); assay: LRRK2 assay (LanthaScreen Eu Kinase Binding Assay)
Chain of LRRK2 (Q5S007 970-2527 limits assumed): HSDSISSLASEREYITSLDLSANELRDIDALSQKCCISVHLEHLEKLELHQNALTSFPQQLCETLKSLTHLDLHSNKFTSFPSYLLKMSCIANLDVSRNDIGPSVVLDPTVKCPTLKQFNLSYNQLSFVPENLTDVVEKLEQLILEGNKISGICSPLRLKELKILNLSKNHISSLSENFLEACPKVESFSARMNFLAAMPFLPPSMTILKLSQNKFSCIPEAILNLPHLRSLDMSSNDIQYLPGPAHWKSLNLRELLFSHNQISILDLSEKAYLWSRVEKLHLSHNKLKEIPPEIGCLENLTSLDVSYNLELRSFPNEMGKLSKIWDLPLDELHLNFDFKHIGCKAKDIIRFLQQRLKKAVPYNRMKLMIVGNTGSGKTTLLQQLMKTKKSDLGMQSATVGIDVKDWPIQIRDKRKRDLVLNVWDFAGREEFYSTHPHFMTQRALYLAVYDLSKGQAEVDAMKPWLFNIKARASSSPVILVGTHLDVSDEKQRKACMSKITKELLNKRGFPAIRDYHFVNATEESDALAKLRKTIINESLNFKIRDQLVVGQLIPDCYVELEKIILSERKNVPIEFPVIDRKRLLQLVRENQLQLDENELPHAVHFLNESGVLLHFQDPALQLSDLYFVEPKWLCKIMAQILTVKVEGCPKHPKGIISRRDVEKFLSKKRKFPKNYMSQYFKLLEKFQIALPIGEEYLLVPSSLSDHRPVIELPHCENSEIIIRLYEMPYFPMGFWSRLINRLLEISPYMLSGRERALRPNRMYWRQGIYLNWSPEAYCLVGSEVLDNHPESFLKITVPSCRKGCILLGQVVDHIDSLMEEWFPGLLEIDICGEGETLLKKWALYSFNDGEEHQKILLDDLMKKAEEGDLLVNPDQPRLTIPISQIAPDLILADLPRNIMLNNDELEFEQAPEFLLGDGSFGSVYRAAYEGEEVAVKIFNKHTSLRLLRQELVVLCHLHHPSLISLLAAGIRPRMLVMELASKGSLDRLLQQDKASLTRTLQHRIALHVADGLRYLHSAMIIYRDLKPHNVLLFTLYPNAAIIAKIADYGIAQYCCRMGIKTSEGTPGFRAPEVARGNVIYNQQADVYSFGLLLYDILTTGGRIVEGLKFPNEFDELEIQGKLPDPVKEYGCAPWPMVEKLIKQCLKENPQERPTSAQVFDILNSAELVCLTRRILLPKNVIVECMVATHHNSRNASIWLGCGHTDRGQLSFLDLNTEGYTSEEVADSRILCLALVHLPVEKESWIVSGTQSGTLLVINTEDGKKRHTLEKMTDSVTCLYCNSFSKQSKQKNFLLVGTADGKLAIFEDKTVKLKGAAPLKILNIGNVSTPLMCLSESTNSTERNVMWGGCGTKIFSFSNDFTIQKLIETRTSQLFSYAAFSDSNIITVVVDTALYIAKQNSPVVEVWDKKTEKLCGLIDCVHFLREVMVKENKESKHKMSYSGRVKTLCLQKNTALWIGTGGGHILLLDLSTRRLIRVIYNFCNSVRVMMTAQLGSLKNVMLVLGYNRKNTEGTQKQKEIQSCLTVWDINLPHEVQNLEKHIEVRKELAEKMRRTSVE
Summary of the method: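 IC50 was derived from a sigmoidal dose-response fit with variable slope, plotting emission ratio against inhibitor concentration. The read-out is loss of FRET between a europium-labelled anti-tag antibody on the kinase and a tracer displaced by inhibitor.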

[1] = 5 nM MYLK, 30 nM tracer 236, RT 1 h, read-out: MYLK Activites: IC50
[2] = 5 nM LRRK2, 10 nM tracer 236, RT 1 h, read-out: LRRK2 Activites: IC50
[3] = LRRK2 Activites: IC50, 5 nM LRRK2, 10 nM tracer 236, RT 1 h

| Compound | Ki (SYK kinase) | IC50 (MYLK; [1]) | IC50 (LRRK2; [2]) | IC50 (MYLK) | IC50 (LRRK2; [3]) |
| --- | --- | --- | --- | --- | --- |
| COc1ccc2nc(Nc3ccccc3)c3n[nH]cc3c2c1 [Example #13, (8-Methoxy-2H-pyrazolo[3,4-c]quinolin-4-yl)-phenyl-amine] | 10 to 100 nM | < 5000 nM | 100 to 1000 nM | – | – |
| Brc1ccc2nc(Nc3ccc4[nH]cnc4c3)c3n[nH]cc3c2c1 [Example #34, (1H-Benzoimidazol-5-yl)-(8-bromo-2H-pyrazolo[3,4-c]quinolin-4-yl)-amine] | 10 to 100 nM | < 5000 nM | 100 to 1000 nM | – | – |
| COc1ccc2nc(Nc3ccc4[nH]ncc4c3)c3n[nH]cc3c2c1 [Example #38, (1H-Indazol-5-yl)-(8-methoxy-2H-pyrazolo[3,4-c]quinolin-4-yl)-amine] | 10 to 100 nM | < 5000 nM | 100 to 1000 nM | – | – |
| COc1ccc2nc(Nc3ccc4[nH]cnc4c3)c3n[nH]cc3c2c1 [Example #39, (1H-Benzoimidazol-5-yl)-(8-methoxy-2H-pyrazolo[3,4-c]quinolin-4-yl)-amine] | 10 to 100 nM | < 5000 nM | 100 to 1000 nM | – | – |
| COc1ccc2nc(Nc3ccc(N4CCN(C)CC4)cc3)c3n[nH]cc3c2c1 [Example #42, (8-Methoxy-2H-pyrazolo[3,4-c]quinolin-4-yl)-[4-(4-methyl-piperazin-1-yl)-phenyl]-amine] | 10 to 100 nM | < 5000 nM | 10 to 100 nM | – | – |
| CN1CCN(c2ccc(Nc3nc4ccc(Br)cc4c4c[nH]nc34)cc2)CC1 [Example #43, (8-Bromo-2H-pyrazolo[3,4-c]quinolin-4-yl)-[4-(4-methyl-piperazin-1-yl)-phenyl]-amine] | < 10 nM | < 5000 nM | 100 to 1000 nM | – | – |
| COc1ccc2nc(Nc3cccc(N)c3)c3n[nH]cc3c2c1 [Example #44, N-(8-Methoxy-2H-pyrazolo[3,4-c]quinolin-4-yl)-benzene-1,3-diamine] | 10 to 100 nM | < 5000 nM | 10 to 100 nM | – | – |
| COc1ccc2nc(Nc3cccc(C(=N)N)c3)c3n[nH]cc3c2c1 [Example #49, 3-(8-Methoxy-2H-pyrazolo[3,4-c]quinolin-4-ylamino)-benzamidine] | 100 to 1000 nM | < 5000 nM | 100 to 1000 nM | – | – |
| COc1ccc2nc(Nc3cccc(C(N)=O)c3)c3n[nH]cc3c2c1 [Example #52, 3-(8-Methoxy-2H-pyrazolo[3,4-c]quinolin-4-ylamino)-benzamide] | 100 to 1000 nM | < 5000 nM | 100 to 1000 nM | – | – |
| COc1ccc2nc(Nc3ccc(OC)c(OC)c3)c3n[nH]cc3c2c1 [Example #53, (3,4-Dimethoxy-phenyl)-(8-methoxy-2H-pyrazolo[3,4-c]quinolin-4-yl)-amine] | 10 to 100 nM | < 5000 nM | 100 to 1000 nM | – | – |
| COc1ccc2nc(Nc3ccc4nc(C)[nH]c4c3)c3n[nH]cc3c2c1 [Example #55, (8-Methoxy-2H-pyrazolo[3,4-c]quinolin-4-yl)-(2-methyl-3H-benzoimidazol-5-yl)-amine] | 10 to 100 nM | < 5000 nM | 100 to 1000 nM | – | – |
| c1cnc2c(c1)nc(Nc1ccc3[nH]ncc3c1)c1n[nH]cc12 [Example #56, (1H-Indazol-5-yl)-(2H-2,3,5,9-tetraaza-cyclopenta[a]naphthalen-4-yl)-amine] | < 10 nM | < 5000 nM | 10 to 100 nM | – | – |
| COc1ccc2nc(Nc3ccc(C(=O)O)cc3)c3n[nH]cc3c2c1 [Example #57, 4-(8-Methoxy-2H-pyrazolo[3,4-c]quinolin-4-ylamino)-benzoic-acid] | 10 to 100 nM | < 5000 nM | 100 to 1000 nM | – | – |
| COc1ccc2nc(Nc3cc(OC)c(OC)c(OC)c3)c3n[nH]cc3c2c1 [Example #67, (8-Methoxy-2H-pyrazolo[3,4-c]quinolin-4-yl)-(3,4,5-trimethoxy-phenyl)-amine] | < 10 nM | < 5000 nM | 100 to 1000 nM | – | – |
| COc1ccc2nc(Nc3cccc(C(C)=O)c3)c3n[nH]cc3c2c1 [Example #127, 1-[3-(8-Methoxy-2H-pyrazolo[3,4-c]quinolin-4-ylamino)-phenyl]-ethanone] | – | < 5000 nM | 100 to 1000 nM | – | – |
| COc1ccc2nc(Nc3cccc(C(=O)O)c3)c3n[nH]cc3c2c1 [Example #287, 3-((8-methoxy-2H-pyrazolo[3,4-c]quinolin-4-yl)amino)benzoic acid] | 100 to 1000 nM | < 5000 nM | – | – | – |

| Compound | Ki (SYK kinase) | IC50 (MYLK; [1]) | IC50 (LRRK2; [2]) | IC50 (MYLK) | IC50 (LRRK2; [3]) |
| --- | --- | --- | --- | --- | --- |
| COc1ccc2nc(Nc3ccc4c(c3)NC(=O)CO4)c3[nH]ncc3c2c1 [Example #291, 6-((8-methoxy-2H-pyrazolo[3,4-c]quinolin-4-yl)amino)-2H-benzo[b][1,4]oxazin-3(4H)-one] | < 10 nM | < 5000 nM | – | – | – |
| COc1ccc2nc(Nc3ccc(N4CCS(=O)(=O)CC4)cc3)c3n[nH]cc3c2c1 [Example #292, 4-(4-((8-methoxy-2H-pyrazolo[3,4-c]quinolin-4-yl)amino)phenyl)thiomorpholine 1,1-dioxide] | < 10 nM | < 5000 nM | – | – | – |
| COc1ccc2nc(Nc3ccc(C(=O)N4CCC(N5CCN(C)CC5)CC4)cc3OC)c3n[nH]cc3c2c1 [Example #295, (3-methoxy-4-((8-methoxy-2H-pyrazolo[3,4-c]quinolin-4-yl)amino)phenyl)(4-(4-methylpiperazin-1-yl)piperidin-1-yl)methanone] | – | < 5000 nM | 10 to 100 nM | – | – |
| COc1ccc2nc(Nc3ccc(C(=O)N4CCCN(C)CC4)cc3)c3n[nH]cc3c2c1 [Example #304, (4-((8-methoxy-2H-pyrazolo[3,4-c]quinolin-4-yl)amino)phenyl)(4-methyl-1,4-diazepan-1-yl)methanone] | – | < 5000 nM | 100 to 1000 nM | – | – |
| COc1ccc2nc(Nc3ccc(C(=O)N4CCC(=O)CC4)cc3)c3n[nH]cc3c2c1 [Example #305, 1-(4-((8-methoxy-2H-pyrazolo[3,4-c]quinolin-4-yl)amino)benzoyl)piperidin-4-one] | – | – | – | < 5000 nM | 10 to 100 nM |
| COc1ccc2nc(Nc3ccc(C(=O)N4CCC5(CC4)OCCO5)cc3)c3n[nH]cc3c2c1 [Example #306, (4-((8-methoxy-2H-pyrazolo[3,4-c]quinolin-4-yl)amino)phenyl)(1,4-dioxa-8-azaspiro[4.5]decan-8-yl)methanone] | – | – | – | < 5000 nM | 10 to 100 nM |
| COc1ccc2nc(Nc3ccc(C(=O)N4CCC(N(C)C)C4)cc3)c3n[nH]cc3c2c1 (stereo not shown) [Example #307, (3-(dimethylamino)pyrrolidin-1-yl)(4-((8-methoxy-2H-pyrazolo[3,4-c]quinolin-4-yl)amino)phenyl)methanone] | – | < 5000 nM | 100 to 1000 nM | – | – |
| CN1CCN(c2ccc(Nc3nc4ccc(F)cc4c4cn[nH]c34)cc2)CC1 [Example #326, 8-fluoro-N-(4-(4-methylpiperazin-1-yl)phenyl)-3H-pyrazolo[3,4-c]quinolin-4-amine] | 10 to 100 nM | < 5000 nM | – | – | – |
| COc1ccc(Nc2nc3ccc(F)cc3c3cn[nH]c23)cc1OC [Example #327, N-(3,4-dimethoxyphenyl)-8-fluoro-3H-pyrazolo[3,4-c]quinolin-4-amine] | 100 to 1000 nM | < 5000 nM | – | – | – |
| CN1CCN(c2ccc(Nc3nc4cc(F)ccc4c4cn[nH]c34)cc2)CC1 [Example #337, 7-fluoro-N-(4-(4-methylpiperazin-1-yl)phenyl)-3H-pyrazolo[3,4-c]quinolin-4-amine] | 10 to 100 nM | < 5000 nM | – | – | – |
| COc1cc(Nc2nc3ccc(OC)cc3c3c[nH]nc23)cc(OC)c1 [Example #341, N-(3,5-dimethoxyphenyl)-8-methoxy-2H-pyrazolo[3,4-c]quinolin-4-amine] | 100 to 1000 nM | < 5000 nM | – | – | – |
| COc1ccc2nc(Nc3cccc(S(=O)(=O)N4CCOCC4)c3)c3n[nH]cc3c2c1 [Example #349, 8-methoxy-N-(3-(morpholinosulfonyl)phenyl)-2H-pyrazolo[3,4-c]quinolin-4-amine] | 100 to 1000 nM | < 5000 nM | – | – | – |
| COc1ccc2nc(Nc3cccc(S(=O)(=O)C(F)(F)F)c3)c3n[nH]cc3c2c1 [Example #350, 8-methoxy-N-(3-((trifluoromethyl)sulfonyl)phenyl)-2H-pyrazolo[3,4-c]quinolin-4-amine] | 100 to 1000 nM | < 5000 nM | – | – | – |
| COc1cccc2nc(Nc3ccc4c(c3)CN(C)C4)c3[nH]ncc3c12 [Example #352, 9-methoxy-N-(2-methylisoindolin-5-yl)-3H-pyrazolo[3,4-c]quinolin-4-amine] | – | < 5000 nM | 10 to 100 nM | – | – |
| COc1ccc(Nc2nc3ccc(I)cc3c3cn[nH]c23)cc1OC [Example #354, N-(3,4-dimethoxyphenyl)-8-iodo-3H-pyrazolo[3,4-c]quinolin-4-amine] | 100 to 1000 nM | < 5000 nM | – | – | – |
